Laboratory results from ChEMBL document CHEMBL5104202, “Structure-Uptake Relationship Studies of Oxazolidinones in Gram-Negative ESKAPE Pathogens” (J Med Chem, 2022).

How the values were obtained:
Format in all cases: functional, organism-based
Acinetobacter baumannii [1] = experiment: Antibacterial activity against recombinant OM pore producing Acinetobacter baumannii assessed as inhibition of bacterial growth
Pseudomonas aeruginosa [2] = experiment: Antibacterial activity against efflux pump lacking Pseudomonas aeruginosa assessed as inhibition of bacterial growth
Pseudomonas aeruginosa [3] = experiment: Antibacterial activity against wild type Pseudomonas aeruginosa assessed as inhibition of bacterial growth
Acinetobacter baumannii [4] = experiment: Antibacterial activity against efflux pump lacking Acinetobacter baumannii assessed as inhibition of bacterial growth
Acinetobacter baumannii [5] = experiment: Antibacterial activity against efflux pump lacking/recombinant OM pore producing Acinetobacter baumannii assessed as inhibition of bacterial growth
Escherichia coli [6] = experiment: Antibacterial activity against recombinant OM pore producing Escherichia coli assessed as inhibition of bacterial growth
Escherichia coli [7] = experiment: Antibacterial activity against efflux pump lacking Escherichia coli assessed as inhibition of bacterial growth
Pseudomonas aeruginosa [8] = experiment: Antibacterial activity against recombinant OM pore producing Pseudomonas aeruginosa assessed as inhibition of bacterial growth
Acinetobacter baumannii [9] = experiment: Antibacterial activity against wild type Acinetobacter baumannii assessed as inhibition of bacterial growth
Escherichia coli [10] = experiment: Antibacterial activity against wild type Escherichia coli assessed as inhibition of bacterial growth
Pseudomonas aeruginosa [11] = experiment: Antibacterial activity against efflux pump lacking/recombinant OM pore producing Pseudomonas aeruginosa assessed as inhibition of bacterial growth
Escherichia coli [12] = experiment: Antibacterial activity against efflux pump lacking/recombinant OM pore producing Escherichia coli assessed as inhibition of bacterial growth

Row | Structure (SMILES) | IC50 (Acinetobacter baumannii [1]) [µM] | IC50 (Pseudomonas aeruginosa [2]) [µM] | IC50 (Pseudomonas aeruginosa [3]) [µM] | IC50 (Acinetobacter baumannii [4]) [µM] | IC50 (Acinetobacter baumannii [5]) [µM] | IC50 (Escherichia coli [6]) [µM] | IC50 (Escherichia coli [7]) [µM] | IC50 (Pseudomonas aeruginosa [8]) [µM] | IC50 (Acinetobacter baumannii [9]) [µM] | IC50 (Escherichia coli [10]) [µM] | IC50 (Pseudomonas aeruginosa [11]) [µM] | IC50 (Escherichia coli [12]) [µM]
1 | O=C1O[C@@H](CO)CN1c1ccc(-c2ccc(-c3cccnc3)cc2)c(F)c1 | > 100 | > 100 | > 100 | > 100 | > 100 | > 100 | > 100 | > 100 | > 100 | > 100 | > 100 | > 100
2 | CC(C)(C)OC(=O)NCC#Cc1ccc(N2C[C@H](CO)OC2=O)cc1F | > 100 | > 100 | > 100 | > 100 | > 100 | 74.3 | 83.4 | > 100 | > 100 | > 100 | > 100 | 64.7
3 | O=C(O)c1cncc(-c2ccc(N3C[C@H](CO)OC3=O)cc2F)c1 | > 100 | > 100 | > 100 | > 100 | > 100 | > 100 | > 100 | > 100 | > 100 | > 100 | > 100 | 42.2
4 | O=Cc1ccc(-c2ccc(N3C[C@H](CO)OC3=O)cc2F)cc1 | 16.9 | 1.1 | > 100 | 1.1 | 1.2 | 5 | 0.6 | 5.9 | 18.4 | 66.8 | 0.02 | 0.5
5 | CCC[n+]1ccc(-c2ccc(N3C[C@H](CO)OC3=O)cc2F)cc1 | 19.8 | > 100 | > 100 | 89.7 | 19.8 | 28.3 | 12.7 | > 100 | > 100 | 43.9 | > 100 | 16.6
6 | CNC(=O)NCC#Cc1ccc(N2C[C@H](CO)OC2=O)cc1F | > 100 | > 100 | > 100 | > 100 | > 100 | > 100 | > 100 | > 100 | > 100 | > 100 | > 100 | 11.2
7 | O=C1O[C@@H](CO)CN1c1ccc(-c2ccc3ccncc3c2)c(F)c1 | > 100 | > 100 | > 100 | > 100 | > 100 | > 100 | > 100 | > 100 | > 100 | > 100 | 0.1 | > 100
8 | COCC#Cc1ccc(N2C[C@H](CO)OC2=O)cc1F | > 100 | > 100 | > 100 | > 100 | > 100 | 36.3 | 80.3 | > 100 | > 100 | 74.9 | > 100 | 44
9 | O=C1O[C@@H](CO)CN1c1ccc(-c2ccc3cnccc3c2)c(F)c1 | > 100 | 67.7 | > 100 | 5.6 | 5.6 | > 100 | > 100 | > 100 | > 100 | > 100 | 37.9 | > 100
10 | NC(CO)CC#Cc1ccc(N2C[C@H](CO)OC2=O)cc1F (stereo partly specified) | > 100 | > 100 | > 100 | > 100 | > 100 | > 100 | > 100 | > 100 | > 100 | > 100 | > 100 | > 100
11 | O=C1O[C@@H](CO)CN1c1ccc(-c2ccnc(N3CCCC3)c2)c(F)c1 | 71.9 | > 100 | > 100 | 72.4 | 72.4 | 4 | 15.4 | > 100 | 71.9 | > 100 | > 100 | 1.5
12 | N/C(=N/O)c1ccc(-c2ccc(N3C[C@H](CO)OC3=O)cc2F)cc1 | 2.8 | 5.1 | > 100 | 1.2 | 0.9 | 7.5 | 0.6 | 63.6 | 22.1 | 55.9 | 1.8 | 1
13 | O=C1O[C@@H](CO)CN1c1ccc(-c2ccc(-c3ccccn3)cc2)c(F)c1 | 35.3 | > 100 | > 100 | 21.5 | 21.5 | 47.2 | 55.6 | > 100 | 35.3 | 76.2 | > 100 | 55.2
